System: MV-4-11 cells
Assay: Gene expression microarray analysis (Affymetrix PrimeView) and GSEA
Type: cell-based, human
Set-up: RFU PODN (11730768_x_at) / Fold change /veh PODN (11730768_x_at) / RFU LINC00158 (11744669_a_at) / Fold change /veh LINC00158 (11744669_a_at) / RFU DUSP10 (11751237_a_at) / Fold change /veh DUSP10 (11751237_a_at) / RFU ID3 (11757404_x_at) / Fold change /veh ID3 (11757404_x_at) / RFU PLEKHG5 (11737974_s_at) / Fold change /veh PLEKHG5 (11737974_s_at) / RFU LRRC4B (11730491_at) / Fold change /veh LRRC4B (11730491_at) / RFU GIMAP4 (11747438_a_at) / Fold change /veh GIMAP4 (11747438_a_at) / RFU KRT8 (11758183_x_at) / Fold change /veh KRT8 (11758183_x_at) / RFU CNN1 (11734310_a_at) / Fold change /veh CNN1 (11734310_a_at) / RFU VPS37D (11726825_at) / Fold change /veh VPS37D (11726825_at) / RFU C10orf10 (11716522_x_at) / Fold change /veh C10orf10 (11716522_x_at) / RFU KIR2DL2 /// KIR2DL4 /// KIR2DL5A /// KIR2DL5B /// KIR2DS1 /// KIR2DS2 /// KIR2DS3 /// KIR2DS4 /// KIR3DL3 /// KIR3DL3 /// KIR3DS1 (11738374_at) / Fold change /veh KIR2DL2 /// KIR2DL4 /// KIR2DL5A /// KIR2DL5B /// KIR2DS1 /// KIR2DS2 /// KIR2DS3 /// KIR2DS4 /// KIR3DL3 /// KIR3DL3 /// KIR3DS1 (11738374_at) / RFU C1QL1 (11718748_at) / Fold change /veh C1QL1 (11718748_at) / RFU TMPRSS4 (11747572_a_at) / Fold change /veh TMPRSS4 (11747572_a_at) / RFU HAMP (11756126_x_at) / Fold change /veh HAMP (11756126_x_at) / RFU RNFT2 (11725882_a_at) / Fold change /veh RNFT2 (11725882_a_at) / RFU NR4A2 (11747474_a_at) / Fold change /veh NR4A2 (11747474_a_at) / RFU ABCC12 (11746883_a_at) / Fold change /veh ABCC12 (11746883_a_at) / RFU TMEM136 (11760407_x_at) / Fold change /veh TMEM136 (11760407_x_at) / RFU CLDN22 /// WWC2 (11732394_at) / Fold change /veh CLDN22 /// WWC2 (11732394_at) / RFU HLA-DPB1 (11760878_x_at) / Fold change /veh HLA-DPB1 (11760878_x_at) / RFU SPINT1 (11716480_a_at) / Fold change /veh SPINT1 (11716480_a_at) / RFU GAP43 (11754022_s_at) / Fold change /veh GAP43 (11754022_s_at) / RFU A4GNT (11735810_at) / Fold change /veh A4GNT (11735810_at) / RFU PRB3 (11715151_x_at) / Fold change /veh PRB3 (11715151_x_at) / RFU TUBB4B (11761932_at) / Fold change /veh TUBB4B (11761932_at) / RFU CAPN14 (11732068_a_at) / Fold change /veh CAPN14 (11732068_a_at) / RFU TMCC2 (11721928_a_at) / Fold change /veh TMCC2 (11721928_a_at) / RFU IRGQ (11745062_a_at) / Fold change /veh IRGQ (11745062_a_at) / RFU FAM174B (11720279_a_at) / Fold change /veh FAM174B (11720279_a_at) / RFU TMPRSS4 (11748680_a_at) / Fold change /veh TMPRSS4 (11748680_a_at) / RFU FAM212B (11763350_a_at) / Fold change /veh FAM212B (11763350_a_at) / RFU PLEKHG5 (11743358_a_at) / Fold change /veh PLEKHG5 (11743358_a_at) / RFU ZSCAN30 (11745921_a_at) / Fold change /veh ZSCAN30 (11745921_a_at) / RFU CMKLR1 (11741424_a_at) / Fold change /veh CMKLR1 (11741424_a_at) / RFU LOC101060620 /// MAPK8IP1 (11723275_at) / Fold change /veh LOC101060620 /// MAPK8IP1 (11723275_at) / RFU SPTSSB (11747773_x_at) / Fold change /veh SPTSSB (11747773_x_at) / RFU PRSS12 (11739890_at) / Fold change /veh PRSS12 (11739890_at) / RFU BIN1 (11741810_x_at) / Fold change /veh BIN1 (11741810_x_at) / RFU WNT11 (11732464_a_at) / Fold change /veh WNT11 (11732464_a_at) / RFU C10orf10 (11716521_a_at) / Fold change /veh C10orf10 (11716521_a_at) / RFU C5orf56 (11738089_at) / Fold change /veh C5orf56 (11738089_at) / RFU CYB561 (11721691_x_at) / Fold change /veh CYB561 (11721691_x_at) / RFU ANKRD19P (11752326_a_at) / Fold change /veh ANKRD19P (11752326_a_at) / RFU OR2T12 /// OR2T33 /// OR2T8 (11738714_s_at) / Fold change /veh OR2T12 /// OR2T33 /// OR2T8 (11738714_s_at) / RFU VCAN (11748164_a_at) / Fold change /veh VCAN (11748164_a_at) / RFU JSRP1 (11732532_at) / Fold change /veh JSRP1 (11732532_at) / RFU KRTAP10-11 (11738290_x_at) / Fold change /veh KRTAP10-11 (11738290_x_at) / RFU MYO3A (11730013_a_at) / Fold change /veh MYO3A (11730013_a_at) / RFU EBF3 (11725865_a_at) / Fold change /veh EBF3 (11725865_a_at) / RFU CAMK2N1 (11719241_x_at) / Fold change /veh CAMK2N1 (11719241_x_at) / RFU C5orf56 (11738088_a_at) / Fold change /veh C5orf56 (11738088_a_at) / RFU OLFML3 (11715873_a_at) / Fold change /veh OLFML3 (11715873_a_at) / RFU LOC100653217 /// NTM (11731650_a_at) / Fold change /veh LOC100653217 /// NTM (11731650_a_at) / RFU MAPK11 (11762145_a_at) / Fold change /veh MAPK11 (11762145_a_at) / RFU FIZ1 (11724087_x_at) / Fold change /veh FIZ1 (11724087_x_at) / RFU OASL (11726364_x_at) / Fold change /veh OASL (11726364_x_at) / RFU SOX15 (11748057_x_at) / Fold change /veh SOX15 (11748057_x_at) / RFU CD79A (11719716_a_at) / Fold change /veh CD79A (11719716_a_at) / RFU HIST1H1D (11736915_at) / Fold change /veh HIST1H1D (11736915_at) / RFU CASKIN2 (11723855_a_at) / Fold change /veh CASKIN2 (11723855_a_at) / RFU LOC730098 (11760151_x_at) / Fold change /veh LOC730098 (11760151_x_at) / RFU OR4N2 (11742367_at) / Fold change /veh OR4N2 (11742367_at) / RFU PRRT2 (11749266_a_at) / Fold change /veh PRRT2 (11749266_a_at) / RFU SNX32 (11753110_a_at) / Fold change /veh SNX32 (11753110_a_at) / RFU CDHR5 (11726645_a_at) / Fold change /veh CDHR5 (11726645_a_at) / RFU RCAN1 (11760418_a_at) / Fold change /veh RCAN1 (11760418_a_at) / RFU FAM167A (11723789_a_at) / Fold change /veh FAM167A (11723789_a_at) / RFU FAM26E (11764081_at) / Fold change /veh FAM26E (11764081_at) / RFU ISYNA1 (11749810_s_at) / Fold change /veh ISYNA1 (11749810_s_at) / RFU ACY1 (11761880_at) / Fold change /veh ACY1 (11761880_at) / RFU 11764098_at / Fold change /veh 11764098_at / RFU SAMD14 (11745864_x_at) / Fold change /veh SAMD14 (11745864_x_at) / RFU NPB (11741838_a_at) / Fold change /veh NPB (11741838_a_at) / RFU TMPRSS6 (11731388_a_at) / Fold change /veh TMPRSS6 (11731388_a_at) / RFU KRTAP10-2 (11738614_at) / Fold change /veh KRTAP10-2 (11738614_at) / RFU ARHGAP8 /// PRR5-ARHGAP8 (11727945_x_at) / Fold change /veh ARHGAP8 /// PRR5-ARHGAP8 (11727945_x_at) / RFU KRTAP5-7 /// NADSYN1 (11734609_at) / Fold change /veh KRTAP5-7 /// NADSYN1 (11734609_at) / RFU RASL12 (11751679_a_at) / Fold change /veh RASL12 (11751679_a_at) / RFU CDKN2B (11736163_a_at) / Fold change /veh CDKN2B (11736163_a_at) / RFU PRF1 (11729649_at) / Fold change /veh PRF1 (11729649_at) / RFU, ZNF638 /// ZNF638-IT1 / Fold change vs veh, ZNF638 /// ZNF638-IT1 / RFU, PANK3 / Fold change vs veh, PANK3 / RFU, SH3YL1 / Fold change vs veh, SH3YL1 / RFU, ZEB2 / Fold change vs veh, ZEB2 / RFU, NRIP1 / Fold change vs veh, NRIP1 / RFU, PTTG1IP / Fold change vs veh, PTTG1IP / RFU, CAPN2 / Fold change vs veh, CAPN2 / RFU, MED14 / Fold change vs veh, MED14 / RFU, SNORA58 / Fold change vs veh, SNORA58 / RFU, C1orf63 / Fold change vs veh, C1orf63 / RFU, LRRFIP1 / Fold change vs veh, LRRFIP1 / RFU, NDUFAF7 / Fold change vs veh, NDUFAF7 / RFU, SLC12A2 / Fold change vs veh, SLC12A2 / RFU, IBTK / Fold change vs veh, IBTK / RFU, ESF1 / Fold change vs veh, ESF1 / Fold change vs veh, TMEM50B / RFU, TAOK1 / Fold change vs veh, TAOK1 / RFU, ACBD3 / Fold change vs veh, ACBD3 / RFU, TMA16 / Fold change vs veh, TMA16 / RFU, RWDD3 / Fold change vs veh, RWDD3 / RFU, BCAT1 / Fold change vs veh, BCAT1 / RFU, EDEM3 / Fold change vs veh, EDEM3 / RFU, TMEM33 / Fold change vs veh, TMEM33 / RFU, WDR75 / Fold change vs veh, WDR75 / RFU, AHCTF1 / Fold change vs veh, AHCTF1 / RFU, TFRC / Fold change vs veh, TFRC / RFU, ZDHHC17 / Fold change vs veh, ZDHHC17 / RFU, NOM1 / Fold change vs veh, NOM1 / RFU, ARL8B / Fold change vs veh, ARL8B / RFU, ZBTB11 / Fold change vs veh, ZBTB11 / RFU, TAMM41 / Fold change vs veh, TAMM41 / RFU, KIAA1704 /// LOC100996395 / Fold change vs veh, KIAA1704 /// LOC100996395 / RFU, ING1 / Fold change vs veh, ING1 / RFU, TRMT61B / Fold change vs veh, TRMT61B / RFU, FUBP3 / Fold change vs veh, FUBP3 / RFU, TP53 / Fold change vs veh, TP53 / RFU, TNKS2 / Fold change vs veh, TNKS2 / RFU, ZFP14 / Fold change vs veh, ZFP14 / RFU, ACTR2 / Fold change vs veh, ACTR2 / RFU, PPP3R1 / Fold change vs veh, PPP3R1 / RFU, PIK3R1 / Fold change vs veh, PIK3R1 / RFU, HNRNPA1 / Fold change vs veh, HNRNPA1 / RFU, RNF170 / Fold change vs veh, RNF170 / RFU, ZNF28 / Fold change vs veh, ZNF28 / RFU, RNGTT / Fold change vs veh, RNGTT / RFU, OGT / Fold change vs veh, OGT / RFU, BRD1 / Fold change vs veh, BRD1 / RFU, MARS / Fold change vs veh, MARS / RFU, ZNF655 / Fold change vs veh, ZNF655 / RFU, FAHD1 / Fold change vs veh, FAHD1 / RFU, BDP1 / Fold change vs veh, BDP1 / RFU, LRRCC1 / Fold change vs veh, LRRCC1 / RFU, ARID1A / Fold change vs veh, ARID1A / RFU, ZNF146 / Fold change vs veh, ZNF146 / RFU, ZNF330 / Fold change vs veh, ZNF330 / RFU, GPN3 / Fold change vs veh, GPN3 / RFU, C9orf123 / Fold change vs veh, C9orf123 / RFU, N4BP2L2 / Fold change vs veh, N4BP2L2 / RFU, ARFIP1 / Fold change vs veh, ARFIP1 / RFU, FAM179B / Fold change vs veh, FAM179B / RFU, BCL10 / Fold change vs veh, BCL10 / RFU, UHRF1BP1L / Fold change vs veh, UHRF1BP1L / RFU, BET1 / Fold change vs veh, BET1 / RFU, CNOT2 / Fold change vs veh, CNOT2 / RFU, ZNF268 / Fold change vs veh, ZNF268 / Fold change vs veh, ZNF507 / RFU, DGCR2 / Fold change vs veh, DGCR2 / RFU, WDSUB1 / Fold change vs veh, WDSUB1 / Fold change vs veh, HSP90B1 /// MIR3652 / RFU, ADSS / Fold change vs veh, ADSS / RFU, GK / Fold change vs veh, GK / RFU, ZNF148 / Fold change vs veh, ZNF148 / RFU, TAF9 / Fold change vs veh, TAF9 / RFU, SLC1A5 / Fold change vs veh, SLC1A5 / RFU, SLMO2 / Fold change vs veh, SLMO2 / RFU, ABCC4 / Fold change vs veh, ABCC4 / RFU, LOC101060439 /// RAP1B / Fold change vs veh, LOC101060439 /// RAP1B / RFU, RFX7 / Fold change vs veh, RFX7 / RFU, GTPBP10 / Fold change vs veh, GTPBP10 / RFU, CNEP1R1 / Fold change vs veh, CNEP1R1 / RFU, BIVM-ERCC5 /// ERCC5 / Fold change vs veh, BIVM-ERCC5 /// ERCC5 / RFU, ILF3 / Fold change vs veh, ILF3 / RFU 11762660_at / Fold change /veh 11762660_at / RFU VCAN (11757783_s_at) / Fold change /veh VCAN (11757783_s_at) / RFU DDX43 (11728927_at) / Fold change /veh DDX43 (11728927_at) / RFU KRT8 (11758188_x_at) / Fold change /veh KRT8 (11758188_x_at) / RFU NKD1 (11759106_at) / Fold change /veh NKD1 (11759106_at) / RFU SRD5A1 (11742802_a_at) / Fold change /veh SRD5A1 (11742802_a_at) / RFU TPSAB1 /// TPSB2 (11721975_s_at) / Fold change /veh TPSAB1 /// TPSB2 (11721975_s_at) / RFU GSTM3 (11746129_a_at) / Fold change /veh GSTM3 (11746129_a_at) / RFU IL23R (11737362_x_at) / Fold change /veh IL23R (11737362_x_at) / RFU TMEM51 (11727254_a_at) / Fold change /veh TMEM51 (11727254_a_at) / RFU PIWIL2 (11732686_x_at) / Fold change /veh PIWIL2 (11732686_x_at) / RFU ORM1 (11744905_x_at) / Fold change /veh ORM1 (11744905_x_at) / RFU CCDC152 (11743942_at) / Fold change /veh CCDC152 (11743942_at) / RFU ECM1 (11717891_a_at) / Fold change /veh ECM1 (11717891_a_at) / RFU IL23R (11748794_a_at) / Fold change /veh IL23R (11748794_a_at) / RFU TNFAIP8L3 (11732012_x_at) / Fold change /veh TNFAIP8L3 (11732012_x_at) / RFU MBOAT4 (11741988_at) / Fold change /veh MBOAT4 (11741988_at) / RFU 11764193_at / Fold change /veh 11764193_at / RFU TMEM53 (11763286_at) / Fold change /veh TMEM53 (11763286_at) / RFU MAGEB2 (11727129_at) / Fold change /veh MAGEB2 (11727129_at) / RFU TMEM200A (11744735_a_at) / Fold change /veh TMEM200A (11744735_a_at) / RFU CCDC152 (11751479_a_at) / Fold change /veh CCDC152 (11751479_a_at) / RFU FAM211A (11726209_a_at) / Fold change /veh FAM211A (11726209_a_at) / RFU RGS16 (11746705_a_at) / Fold change /veh RGS16 (11746705_a_at) / RFU VCAN (11755009_s_at) / Fold change /veh VCAN (11755009_s_at) / RFU RHOB (11743442_s_at) / Fold change /veh RHOB (11743442_s_at) / RFU RGS16 (11720943_a_at) / Fold change /veh RGS16 (11720943_a_at) / RFU RGS16 (11720944_at) / Fold change /veh RGS16 (11720944_at) / RFU, VPS4B / Fold change vs veh, VPS4B / RFU, CREB1 / Fold change vs veh, CREB1 / RFU, DNAJC13 / Fold change vs veh, DNAJC13 / RFU, GNAQ / Fold change vs veh, GNAQ / RFU, CDK5R1 / Fold change vs veh, CDK5R1 / RFU, ZRANB3 / Fold change vs veh, ZRANB3 / RFU, CUL4A / Fold change vs veh, CUL4A / RFU, CCNY / Fold change vs veh, CCNY / RFU, UFL1 / Fold change vs veh, UFL1 / RFU, COG3 / Fold change vs veh, COG3 / RFU, DIAPH2 / Fold change vs veh, DIAPH2 / RFU, SKA2 / Fold change vs veh, SKA2 / RFU, AFF3 / Fold change vs veh, AFF3 / RFU, LMF1 / Fold change vs veh, LMF1 / RFU, IPO11 / Fold change vs veh, IPO11 / RFU, DFFB / Fold change vs veh, DFFB / RFU, FOXP1 / Fold change vs veh, FOXP1 / RFU, CARD8 / Fold change vs veh, CARD8 / RFU, STRN3 / Fold change vs veh, STRN3 / RFU, ADK / Fold change vs veh, ADK / RFU, RASSF2 / Fold change vs veh, RASSF2 / RFU, WIPF1 / Fold change vs veh, WIPF1 / RFU, LARP1B / Fold change vs veh, LARP1B / RFU, RASA1 / Fold change vs veh, RASA1 / RFU, RB1 / Fold change vs veh, RB1 / RFU, PPFIA1 / Fold change vs veh, PPFIA1 / RFU, MAT2A / Fold change vs veh, MAT2A / RFU, CCT5 / Fold change vs veh, CCT5 / RFU, WDR92 / Fold change vs veh, WDR92 / RFU, CUX1 / Fold change vs veh, CUX1 / RFU, TTC7A / Fold change vs veh, TTC7A / RFU, TMEM135 / Fold change vs veh, TMEM135 / RFU, DEPTOR / Fold change vs veh, DEPTOR / RFU, CPM / Fold change vs veh, CPM / RFU, DNAJB6 / Fold change vs veh, DNAJB6 / RFU, CACNA2D3 / Fold change vs veh, CACNA2D3 / RFU, DTX4 / Fold change vs veh, DTX4 / RFU, TFCP2 / Fold change vs veh, TFCP2 / RFU, GMCL1 /// GMCL1P1 / Fold change vs veh, GMCL1 /// GMCL1P1 / RFU, AEBP2 / Fold change vs veh, AEBP2 / RFU, SNHG1 /// SNORD22 /// SNORD25 /// SNORD26 /// SNORD27 /// SNORD28 /// SNORD29 /// SNORD31 / Fold change vs veh, SNHG1 /// SNORD22 /// SNORD25 /// SNORD26 /// SNORD27 /// SNORD28 /// SNORD29 /// SNORD31 / Fold change (Aza/veh), C12orf56 (ProbeSet 11735607_a_at) / Fold change (ACY-1035/veh), C12orf56 (ProbeSet 11735607_a_at) / Fold change (Aza/veh), FGFR1OP (ProbeSet 11751329_s_at) / Fold change (ACY-1035/veh), FGFR1OP (ProbeSet 11751329_s_at) / Fold change (Aza/veh), VPS36 (ProbeSet 11739960_a_at) / Fold change (ACY-1035/veh), VPS36 (ProbeSet 11739960_a_at) / RFU SYPL1 (11715823_x_at) / Fold change /veh SYPL1 (11715823_x_at) / RFU IGFBP7 (11715501_s_at) / Fold change /veh IGFBP7 (11715501_s_at) / RFU REEP3 (11722064_at) / Fold change /veh REEP3 (11722064_at) / RFU IGLL1 (11728026_x_at) / Fold change /veh IGLL1 (11728026_x_at): dose or concentration left out as unconfirmed
Conditions: ProbeSet 11753234_a_at; LIST B

## Nc1ncn([C@@H]2O[C@H](CO)[C@@H](O)[C@H]2O)c(=O)n1 [azacitidine]
  RFU, TAMM41: 52.96 RFU

— PMC5218480 (PLoS ONE, 2017)
